What was measured:
[1] = test system: chickweed; assay: Test C postemergence; format: in vivo, Stellaria media
Method in brief: (§1)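 Whole-plant greenhouse test with surfactant-containing solvent formulation, applied preemergence to sown loam–sand pots or postemergence to 2–18 cm plants. Scored by eye 13 to 15 days on, 0–100 scale.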

[2] = test system: giant foxtail; assay: Test A postemergence; format: in vivo, Setaria faberii
Method in brief: (§2)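 Injury scores run from 0, no effect, to 100, complete control, judged by eye against untreated plants roughly 10 days after treatment. Chemicals carried a surfactant in a non-phytotoxic solvent and went onto loam–sand soil preemergence or onto one- to two-leaf seedlings postemergence.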

[3] = test system: pigweed; assay: Test A postemergence; format: in vivo, Amaranthus retroflexus
Method in brief: as §2

[4] = test system: giant foxtail; assay: Test A preemergence; format: in vivo, Setaria faberii; conditions: 0 to 100 scale where 0 is no effect and 100 is complete control
Method in brief: as §2

[5] = test system: lambsquarters; assay: Test C postemergence; format: in vivo, Chenopodium album
Method in brief: as §1

[6] = test system: sedge, umbrella; assay: Test B flooded paddy test; format: in vivo, Cyperus difformis; conditions: Flood, 250 g ai/ha, 0 to 100 scale where 0 is no effect and 100 is complete control
Method in brief: (§3)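 Flooded to 3 cm at the 2-leaf stage, pots received compound through the paddy water and were kept at that depth under greenhouse conditions. After 13–15 days, effect was rated by eye relative to controls, 0 = none and 100 = complete control.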

[7] = test system: rice; assay: Test B flooded paddy test; format: in vivo, Oryza sativa; conditions: Flood, 250 g ai/ha, 0 to 100 scale where 0 is no effect and 100 is complete control
Method in brief: as §3

[8] = test system: oilseed rape; assay: Test C postemergence; format: in vivo, Brassica napus
Method in brief: as §1

[9] = test system: barnyardgrass; assay: Test B flooded paddy test; format: in vivo, Echinochloa crus-galli; conditions: Flood, 250 g ai/ha, 0 to 100 scale where 0 is no effect and 100 is complete control
Method in brief: as §3

[10] = test system: galium; assay: Test C postemergence; format: in vivo, Galium aparine
Method in brief: as §1

[11] = test system: Italian ryegrass; assay: Test C postemergence; format: in vivo, Lolium multiflorum
Method in brief: as §1

[12] = test system: soybean; assay: Test C postemergence; format: in vivo, Glycine max
Method in brief: as §1

[13] = test system: waterhemp; assay: Test C postemergence; format: in vivo, Amaranthus rudis
Method in brief: as §1

[14] = 16 g ai/ha, postemergence, 0 is no effect, 100 is complete control
[15] = 125 g ai/ha, postemergence, visual rating, scale 0 to 100 (0 no effect, 100 complete control)
[16] = Postemergence, 62 g ai/ha, scale 0 to 100 (0 no effect, 100 complete control)
[17] = 31 g ai/ha, 0 to 100 scale, 0 no effect, 100 complete control
[18] = 125 g ai/ha, 0 to 100 scale where 0 is no effect and 100 is complete control

N#Cc1cnn(-c2c(Br)cccc2Oc2ncc(Cl)cn2)c1 [Compound 140]
Plant response rating (0 to 100), Chickweed [1, 14]: 30
Plant response rating, Chickweed [1, 15]: 70
Plant response rating, Chickweed [1, 16]: 45
Plant response rating, Foxtail, Giant [2, 17]: 30
Foxtail, Giant plant response rating [2, 18]: 90
Plant response rating, Pigweed [3, 17]: 90
Pigweed plant response rating [3, 18]: 100
Plant response rating, Foxtail, Giant ([4]; 31 g ai/ha, visual, approximately 10 days): 50
Plant response rating, Foxtail, Giant ([4]; 125 g ai/ha): 100
Plant response rating (0 to 100), Lambsquarters [5, 14]: 35
Plant response rating, Lambsquarters [5, 15]: 85
Plant response rating, Lambsquarters [5, 16]: 80
Plant response rating, Sedge, Umbrella [6]: 80
Plant response rating, Rice [7]: 0
Plant response rating (0 to 100), Oilseed Rape [8, 14]: 5
Plant response rating, Oilseed Rape [8, 15]: 50
Plant response rating, Oilseed Rape [8, 16]: 50
Plant response rating, Barnyardgrass [9]: 20
Plant response rating (0 to 100), Galium [10, 14]: 50
Plant response rating, Galium [10, 15]: 95
Plant response rating, Galium [10, 16]: 90
Plant response rating (0 to 100), Ryegrass, Italian [11, 14]: 0
Plant response rating, Ryegrass, Italian [11, 15]: 0
Plant response rating, Ryegrass, Italian [11, 16]: 0
Plant response rating (0 to 100), Soybean [12, 14]: 25
Plant response rating, Soybean [12, 15]: 75
Plant response rating, Soybean [12, 16]: 65
Plant response rating (0 to 100), Waterhemp [13, 14]: 75
Plant response rating, Waterhemp [13, 15]: 85
Plant response rating, Waterhemp [13, 16]: 80

Fc1cccc(Oc2ncc(Cl)cn2)c1-n1cc(C(F)F)nn1 [Compound 141, 5-chloro-2-[2-[4-(difluoromethyl)-1H-1,2,3-triazol-1-yl]-3-fluorophenoxy]pyrimidine]
pest or weed control at 16 g/ha ([1]; Stellaria media, post-emergence, 16 g ai/ha, postemergence, 0 is no effect, 100 is complete control, read-out: Plant response rating (0 to 100), Chickweed): 70%
pest or weed control at 125 g/ha ([1]; Stellaria media, post-emergence, 125 g ai/ha, postemergence, visual rating, scale 0 to 100 (0 no effect, 100 complete control), read-out: Plant response rating, Chickweed): 100%
pest or weed control at 62 g/ha ([1]; Stellaria media, post-emergence, Postemergence, 62 g ai/ha, scale 0 to 100 (0 no effect, 100 complete control), read-out: Plant response rating, Chickweed): 95%
pest or weed control at 31 g/ha ([2]; Setaria faberi, post-emergence, 240 h, 31 g ai/ha, 0 to 100 scale, 0 no effect, 100 complete control, read-out: Plant response rating, Foxtail, Giant): 90%
pest or weed control at 125 g/ha ([2]; Setaria faberi, post-emergence, 240 h, 125 g ai/ha, 0 to 100 scale where 0 is no effect and 100 is complete control, read-out: Foxtail, Giant plant response rating): 100%
pest or weed control at 31 g/ha ([3]; Amaranthus retroflexus, post-emergence, 31 g ai/ha, 0 to 100 scale, 0 no effect, 100 complete control, read-out: Plant response rating, Pigweed): 100%
pest or weed control at 125 g/ha ([3]; Amaranthus retroflexus, post-emergence, 240 h, 125 g ai/ha, 0 to 100 scale where 0 is no effect and 100 is complete control, read-out: Pigweed plant response rating): 100%
pest or weed control at 31 g/ha ([4]; Setaria faberi, pre-emergence, 240 h, 31 g ai/ha, visual, approximately 10 days, read-out: Plant response rating, Foxtail, Giant): 100%
pest or weed control at 125 g/ha ([4]; Setaria faberi, pre-emergence, 240 h, 125 g ai/ha, read-out: Plant response rating, Foxtail, Giant): 100%
pest or weed control at 16 g/ha ([5]; Chenopodium album, post-emergence, 16 g ai/ha, postemergence, 0 is no effect, 100 is complete control, read-out: Plant response rating (0 to 100), Lambsquarters): 85%
pest or weed control at 125 g/ha ([5]; Chenopodium album, post-emergence, 125 g ai/ha, postemergence, visual rating, scale 0 to 100 (0 no effect, 100 complete control), read-out: Plant response rating, Lambsquarters): 100%
pest or weed control at 62 g/ha ([5]; Chenopodium album, post-emergence, Postemergence, 62 g ai/ha, scale 0 to 100 (0 no effect, 100 complete control), read-out: Plant response rating, Lambsquarters): 100%
pest or weed control at 250 g/ha ([6]; Cyperus difformis, read-out: Plant response rating, Sedge, Umbrella): 90%
plant injury at 250 g/ha ([7]; Oryza sativa, read-out: Plant response rating, Rice): 45%
plant injury at 16 g/ha ([8]; Brassica napus, post-emergence, 16 g ai/ha, postemergence, 0 is no effect, 100 is complete control, read-out: Plant response rating (0 to 100), Oilseed Rape): 50%
plant injury at 125 g/ha ([8]; Brassica napus, post-emergence, 125 g ai/ha, postemergence, visual rating, scale 0 to 100 (0 no effect, 100 complete control), read-out: Plant response rating, Oilseed Rape): 98%
plant injury at 62 g/ha ([8]; Brassica napus, post-emergence, Postemergence, 62 g ai/ha, scale 0 to 100 (0 no effect, 100 complete control), read-out: Plant response rating, Oilseed Rape): 95%
pest or weed control at 250 g/ha ([9]; Echinochloa crus-galli, read-out: Plant response rating, Barnyardgrass): 100%
pest or weed control at 16 g/ha ([10]; Galium, post-emergence, 16 g ai/ha, postemergence, 0 is no effect, 100 is complete control, read-out: Plant response rating (0 to 100), Galium): 90%
pest or weed control at 125 g/ha ([10]; Galium, post-emergence, 125 g ai/ha, postemergence, visual rating, scale 0 to 100 (0 no effect, 100 complete control), read-out: Plant response rating, Galium): 100%
pest or weed control at 62 g/ha ([10]; Galium, post-emergence, Postemergence, 62 g ai/ha, scale 0 to 100 (0 no effect, 100 complete control), read-out: Plant response rating, Galium): 98%
pest or weed control at 16 g/ha ([11]; Lolium multiflorum, post-emergence, 16 g ai/ha, postemergence, 0 is no effect, 100 is complete control, read-out: Plant response rating (0 to 100), Ryegrass, Italian): 0%
pest or weed control at 125 g/ha ([11]; Lolium multiflorum, post-emergence, 125 g ai/ha, postemergence, visual rating, scale 0 to 100 (0 no effect, 100 complete control), read-out: Plant response rating, Ryegrass, Italian): 40%
pest or weed control at 62 g/ha ([11]; Lolium multiflorum, post-emergence, Postemergence, 62 g ai/ha, scale 0 to 100 (0 no effect, 100 complete control), read-out: Plant response rating, Ryegrass, Italian): 5%
Soybean plant response rating (crop injury, 0-100 scale) at 16 g/ha ([12]; Glycine max, post-emergence, 16 g ai/ha, postemergence, 0 is no effect, 100 is complete control): 85%
Soybean plant response rating (crop injury, 0-100 scale) at 125 g/ha ([12]; Glycine max, post-emergence, 125 g ai/ha, postemergence, visual rating, scale 0 to 100 (0 no effect, 100 complete control), read-out: Plant response rating, Soybean): 95%
Soybean plant response rating (crop injury, 0-100 scale) at 62 g/ha ([12]; Glycine max, post-emergence, Postemergence, 62 g ai/ha, scale 0 to 100 (0 no effect, 100 complete control)): 90%
pest or weed control at 16 g/ha ([13]; Amaranthus tuberculatus, post-emergence, 16 g ai/ha, postemergence, 0 is no effect, 100 is complete control, read-out: Plant response rating (0 to 100), Waterhemp): 85%
pest or weed control at 125 g/ha ([13]; Amaranthus tuberculatus, post-emergence, 125 g ai/ha, postemergence, visual rating, scale 0 to 100 (0 no effect, 100 complete control), read-out: Plant response rating, Waterhemp): 100%
pest or weed control at 62 g/ha ([13]; Amaranthus tuberculatus, post-emergence, Postemergence, 62 g ai/ha, scale 0 to 100 (0 no effect, 100 complete control), read-out: Plant response rating, Waterhemp): 100%

From patent publication US9695155B2, “Herbicidal substituted pyrimidinyloxy benzene compounds” (E. I. DU PONT DE NEMOURS AND COMPANY, priority 2013, dated 2017)
